Experimental data taken from ChEMBL document CHEMBL3045362, “Iodine catalyzed one-pot synthesis of chloro-substituted linear and angular indoloquinolines and in vitro antiproliferative activity study of different indoloquinolines” (Med Chem Res, 2013).
≈ marks a conversion by molar mass, not a printed value.

Experiments:
MCF7 = test: Cytotoxicity against Homo sapiens (human) MCF-7 cells assessed as survival after 48 hr by MTT assay; assay type: functional, cell-based; settings: MCF7, 48 h
HepG2 = test: Cytotoxicity against Homo sapiens (human) HepG2 cells assessed as survival after 48 hr by MTT assay; assay type: functional, cell-based; settings: HepG2, 48 h

In the case of Cc1cccc2cc3c(nc12)[nH]c1ccccc13, the IC50 (MCF7) is reported as 5.5 mg/L (≈ 23.7 µM) and the IC50 (HepG2) is reported as 5.4 mg/L (≈ 23.2 µM).

Brc1ccc2cc3c(nc2c1)[nH]c1ccccc13 was tested, and the IC50 (MCF7) was 42.8 mg/L (≈ 144 µM) and the IC50 (HepG2) was 34 mg/L (≈ 114 µM).

With c1ccc2[nH]c3nc4ccccc4c-3cc2c1 the IC50 (MCF7) was > 1000 mg/L and the IC50 (HepG2) was > 1000 mg/L.

Work on c1ccc2c(c1)ccc1cc3c(nc12)[nH]c1ccccc13 yielded an IC50 (MCF7) of 71.4 mg/L (≈ 266 µM) and an IC50 (HepG2) of 98.1 mg/L (≈ 366 µM).
